Measurements published in patent publication US10941157B2, “Pesticidal compositions and uses thereof” (Gilead Apollo, LLC, priority 2015, dated 2021).
In brackets after ≈: the same amount, converted by molar mass. Read-outs that look alike come from different tables or passages of the source.

Columns and labels:
Format in all cases: cell-based
[1] = tested on: Phytophthora capsici (Pc); assay: In vitro pathogen growth inhibition assay, Pc; conditions: 48 h
How it was run: (§1)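 Value reported is the compound concentration reaching ≥90% growth inhibition, from OD readings at 24 and 48 h after blank subtraction, confirmed visually. Inoculum was spores diluted in 17% V8 medium, except Rs, using 1.5 mm mycelial plugs in ¼ PDB; actual compound concentration corrected via OD600.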

[2] = tested on: Rhizoctonia solani (Rs); assay: In vitro pathogen growth inhibition assay, Rs (mycelial plugs); conditions: Rhizoctonia solani, 48 h
How it was run: as §1

[3] = tested on: Septoria tritici (St); assay: In vitro pathogen growth inhibition assay, St; conditions: Zymoseptoria tritici, 48 h
How it was run: as §1

[4] = tested on: Fusarium virguliforme (Fv); assay: In vitro pathogen growth inhibition assay, Fv
How it was run: as §1

[5] = tested on: Botrtyis cinerea (Bc); assay: In vitro pathogen growth inhibition assay, Bc; conditions: 48 h
How it was run: as §1

[6] = tested on: Collectotrichum graminicola (Cg); assay: In vitro pathogen growth inhibition assay, Cg; conditions: 48 h
How it was run: as §1

[7] = tested on: Diplodia maydis (Dm); assay: In vitro pathogen growth inhibition assay, Dm; conditions: Stenocarpella maydis, 48 h
How it was run: as §1

[8] = tested on: Fusarium moniliforme (Fm); assay: In vitro pathogen growth inhibition assay, Fm; conditions: Fusarium verticillioides
How it was run: as §1

[9] = ≥90% growth inhibition, 48 hours, vs 2% DMSO control, read-out: Compound Concentration (ppm) sufficient for ≥90% inhibition of Pc
[10] = ≥90% growth inhibition, mycelial plugs, 48 hours, vs 2% DMSO control, read-out: Compound Concentration (ppm) sufficient for ≥90% inhibition of Rs
[11] = ≥90% growth inhibition, 48 hours, vs 2% DMSO control, read-out: Compound Concentration (ppm) sufficient for ≥90% inhibition of St
[12] = ≥90% growth inhibition, 48 hours, vs 2% DMSO control, read-out: Compound Concentration (ppm) sufficient for ≥90% inhibition of Fv
[13] = ≥90% growth inhibition, 48 hours, vs 2% DMSO control, read-out: Compound Concentration (ppm) sufficient for ≥90% inhibition of Bc
[14] = ≥90% growth inhibition, 48 hours, vs 2% DMSO control, read-out: Compound Concentration (ppm) sufficient for ≥90% inhibition of Cg
[15] = ≥90% growth inhibition, 48 hours, vs 2% DMSO control, read-out: Compound Concentration (ppm) sufficient for ≥90% inhibition of Dm
[16] = ≥90% growth inhibition, 48 hours, vs 2% DMSO control, read-out: Compound Concentration (ppm) sufficient for ≥90% inhibition of Fm

IC90 [1, 9]	IC90 [2, 10]	IC90 [3, 11]	IC90 [4, 12]	IC90 [5, 13]	IC90 [6, 14]	IC90 [7, 15]	IC90 [8, 16]	SMILES	further results
> 50 µg/mL	0.08 µg/mL (≈ 0.14 µM)	> 50 µg/mL	2 µg/mL (≈ 3.51 µM)	2 µg/mL (≈ 3.51 µM)	10 µg/mL (≈ 17.6 µM)	≥ 2 µg/mL	0.08 µg/mL (≈ 0.14 µM)	CNC(=O)C(C)(C)n1c(=O)c2c(C)c(-n3nccn3)sc2n(C[C@H](OCCC#N)c2cc(F)ccc2OC)c1=O [Compound I-207]	
> 50 µg/mL	50 µg/mL (≈ 81.5 µM)	> 50 µg/mL	2 µg/mL (≈ 3.26 µM)	2 µg/mL (≈ 3.26 µM)	10 µg/mL (≈ 16.3 µM)	50 µg/mL (≈ 81.5 µM)	0.4 µg/mL (≈ 0.652 µM)	COCCO[C@@H](Cn1c(=O)n(C(C)(C)C(=O)NC2CCC2)c(=O)c2c(C)c(-n3cccn3)sc21)c1cc(F)ccc1OC [Compound I-299]	
								COc1ccccc1[C@H](Cn1c(=O)n(C(C)(C)C(=O)N2CCCCC2)c(=O)c2c(C)c(-n3cccn3)sc21)OC1CCOCC1 [Compound I-117]	IC90 ([1]; ≥90% inhibition, 48 hours vs 2% DMSO control, read-out: Compound Concentration (ppm) sufficient for ≥90% inhibition of growth, Pc): > 50 µg/mL; IC90 ([2]; ≥90% inhibition, mycelial plugs, 48 hours vs 2% DMSO control, read-out: Compound Concentration (ppm) sufficient for ≥90% inhibition of growth, Rs): 10 µg/mL (≈ 15.7 µM); IC90 ([3]; ≥90% inhibition, 48 hours vs 2% DMSO control, read-out: Compound Concentration (ppm) sufficient for ≥90% inhibition of growth, St): > 50 µg/mL; IC90 ([4]; ≥90% inhibition, 48 hours vs 2% DMSO control, read-out: Compound Concentration (ppm) sufficient for ≥90% inhibition of growth, Fv): 10 µg/mL (≈ 15.7 µM); IC90 ([5]; ≥90% inhibition, 48 hours vs 2% DMSO control, read-out: Compound Concentration (ppm) sufficient for ≥90% inhibition of growth, Bc): 2 µg/mL (≈ 3.15 µM); IC90 ([6]; ≥90% inhibition, 48 hours vs 2% DMSO control, read-out: Compound Concentration (ppm) sufficient for ≥90% inhibition of growth, Cg): 10 µg/mL (≈ 15.7 µM); IC90 ([7]; ≥90% inhibition, 48 hours vs 2% DMSO control, read-out: Compound Concentration (ppm) sufficient for ≥90% inhibition of growth, Dm): 10 µg/mL (≈ 15.7 µM); IC90 ([8]; ≥90% inhibition, 48 hours vs 2% DMSO control, read-out: Compound Concentration (ppm) sufficient for ≥90% inhibition of growth, Fm): 0.4 µg/mL (≈ 0.629 µM)
> 50 µg/mL	0.08 µg/mL (≈ 0.144 µM)	> 50 µg/mL	2 µg/mL (≈ 3.59 µM)	2 µg/mL (≈ 3.59 µM)	2 µg/mL (≈ 3.59 µM)	≥ 10 µg/mL	0.4 µg/mL (≈ 0.719 µM)	COc1ccc(F)cc1[C@@H](O)Cn1c(=O)n(C(C)(C)C(=O)N2CCCC2)c(=O)c2c(C)c(-n3nccn3)sc21 [Compound I-214]	
> 50 µg/mL	50 µg/mL (≈ 88.1 µM)	> 50 µg/mL	2 µg/mL (≈ 3.52 µM)	10 µg/mL (≈ 17.6 µM)	50 µg/mL (≈ 88.1 µM)	50 µg/mL (≈ 88.1 µM)	2 µg/mL (≈ 3.52 µM)	Cc1c(-n2nccn2)sc2c1c(=O)n(C(C)(C)C(=O)NC(C)C)c(=O)n2CCc1cc(F)ccc1OCCC#N [Compound I-340]	
> 50 µg/mL	> 50 µg/mL	> 50 µg/mL	2 µg/mL (≈ 3.31 µM)	> 50 µg/mL	> 50 µg/mL	> 50 µg/mL	2 µg/mL (≈ 3.31 µM)	Cc1c(-n2nccn2)sc2c1c(=O)n(C(C)(C)C(=O)NC(C)C)c(=O)n2CCc1cc(F)ccc1OCc1ccccc1 [Compound I-332]	
								COc1ccc(F)cc1[C@@H](Cn1c(=O)n(C(C)(C)C(=O)NC(C)C)c(=O)c2c(C)c(-n3nccn3)sc21)OCCCO [Compound I-320]	IC90 ([1]; concentration sufficient to ≥90% inhibition of growth, 48 hours vs 2% DMSO control, read-out: Compound Concentration (ppm) for ≥90% inhibition, Pc): > 50 µg/mL; IC90 ([2]; concentration sufficient to ≥90% inhibition of growth, 48 hours vs 2% DMSO control, read-out: Compound Concentration (ppm) for ≥90% inhibition, Rs): > 50 µg/mL; IC90 ([3]; concentration sufficient to ≥90% inhibition of growth, 48 hours vs 2% DMSO control, read-out: Compound Concentration (ppm) for ≥90% inhibition, St): > 50 µg/mL; IC90 ([4]; concentration sufficient to ≥90% inhibition of growth, 48 hours vs 2% DMSO control, read-out: Compound Concentration (ppm) for ≥90% inhibition, Fv): 50 µg/mL (≈ 83 µM); IC90 ([5]; concentration sufficient to ≥90% inhibition of growth, 48 hours vs 2% DMSO control, read-out: Compound Concentration (ppm) for ≥90% inhibition, Bc): 50 µg/mL (≈ 83 µM); IC90 ([6]; concentration sufficient to ≥90% inhibition of growth, 48 hours vs 2% DMSO control, read-out: Compound Concentration (ppm) for ≥90% inhibition, Cg): > 50 µg/mL; IC90 ([7]; concentration sufficient to ≥90% inhibition of growth, 48 hours vs 2% DMSO control, read-out: Compound Concentration (ppm) for ≥90% inhibition, Dm): > 50 µg/mL; IC90 ([8]; concentration sufficient to ≥90% inhibition of growth, 48 hours vs 2% DMSO control, read-out: Compound Concentration (ppm) for ≥90% inhibition, Fm): 50 µg/mL (≈ 83 µM)
50 µg/mL (≈ 77.8 µM)	0.08 µg/mL (≈ 0.124 µM)	> 50 µg/mL	0.4 µg/mL (≈ 0.622 µM)	0.4 µg/mL (≈ 0.622 µM)	2 µg/mL (≈ 3.11 µM)	2 µg/mL (≈ 3.11 µM)	0.08 µg/mL (≈ 0.124 µM)	COc1ccc(F)cc1[C@H](Cn1c(=O)n(C(C)(C)C(=O)NC(C)C)c(=O)c2c(C)c(-n3nccn3)sc21)O[C@H]1CC[C@@H](O)CC1 [Compound I-264]	
≥ 50 µg/mL	2 µg/mL (≈ 3.26 µM)	> 50 µg/mL	2 µg/mL (≈ 3.26 µM)	2 µg/mL (≈ 3.26 µM)	10 µg/mL (≈ 16.3 µM)	10 µg/mL (≈ 16.3 µM)	2 µg/mL (≈ 3.26 µM)	COc1ccccc1[C@H](Cn1c(=O)n(C(C)(C)C(=O)NC(C)C)c(=O)c2c(C)c(-n3nccn3)sc21)OCCC(=O)NO [Compound I-266]	
> 50 µg/mL	2 µg/mL (≈ 3.35 µM)	> 50 µg/mL	2 µg/mL (≈ 3.35 µM)	2 µg/mL (≈ 3.35 µM)	10 µg/mL (≈ 16.7 µM)	2 µg/mL (≈ 3.35 µM)	0.4 µg/mL (≈ 0.669 µM)	COc1ccc(F)cc1[C@H](Cn1c(=O)n([C@@H](C)C(=O)N(C)C(C)C)c(=O)c2c(C)c(-n3nccn3)sc21)OCCC#N [Compound I-204]	
